Laboratory results taken from patent US12178892B2, “Compounds for positron emission tomography” (Endocyte, Inc., priority 2013, dated 2024).

Columns and labels:
A549 tumor xenografts = test: Ex vivo (postmortem) biodistribution, A549 tumor xenografts; design: species or system nude mice; conditions: mouse
Text: It is to be understood that the vertical axis has been expanded and that the kidney data is truncated. […] It is to be understood that the vertical axis has been expanded and that the kidney data is truncated. […] EXAMPLE. […] Without being bound by theory, it is believed herein that the highest accumulation of radioactivity in kidneys, along with the relative low uptake of radiotracer in the hepatobiliary system i.e. liver, bile and intestine/feces supports that renal elimination is the predominant excretion pathway.

KB tumor xenografts [1] = test: Ex vivo (postmortem) biodistribution, KB tumor xenografts; type: in vivo, nude mice; conditions: for FR specificity: in both KB xenograft tumor tissues and A549 xenograft tumor tissues; for radiotracer level in kidneys: mouse, in vivo
Text: EXAMPLE. […] Without being bound by theory, it is believed herein that the highest accumulation of radioactivity in kidneys, along with the relative low uptake of radiotracer in the hepatobiliary system i.e. liver, bile and intestine/feces supports that renal elimination is the predominant excretion pathway.

FR [2] = test: Binding in A549 xenograft homogenates; conditions: A549 xenografts
PSMA = biological target: T1, PSMA (Homo sapiens, UniProt Q04609); test: In vitro study in PSMA(−) and PSMA(+) cell lines, Kd; type: cell-based; conditions: PSMA(−) cell line (PC3) and PSMA(+) cell lines (LnCaP and PIP—PC3); ^67Ga as surrogate of ^68Ga
T1 construct: LnCap is a PSMA (+) cell line; and PIP—PC3 is a transfect cell line with higher PSMA expression; endogenous in cells; host or cells: LnCaP (endogenous) and PIP-PC3 (PSMA-transfected PC3); PC3 as the PSMA(-) control
Method: (§1) EXAMPLE. In vitro evaluation of DUPA-EAOA-Phe-Phe-NOTA-^68Ga radiotracer (^68Ga-QC08009). ^67Ga has a longer half life than ^68Ga (about 3.3 days versus about 68 minutes, respectively). Thus, ^67Ga is used as a surrogate of ^68Ga for in vitro evaluation of Kd values and tissue imaging. It is to be understood that the in vitro evaluation of Kd values and tissue imaging observed for ^67Ga is predictive of ^68Ga. DUPA-EAOA-Phe-Phe-NOTA-^67Ga (67Ga-NOTA-LC-PSMA2) was prepared in nearly quantitative radiochemical yield. […] PC3 is a PSMA (−) cell line; LnCap is a PSMA (+) cell line; and PIP—PC3 is a transfect cell line with higher PSMA expression.

[3] = test system: PSMA(+) prostate cancer tissues; test: Binding to PSMA(+) prostate cancer tissues (tissue imaging); conditions: compared to ^67Ga-DKFZ-PSMA11
Method: as §1

PC3 cells = test: In vitro uptake by PC3 cells; type: cell-based; conditions: PC3, PSMA (−) cell line
Method: as §1

in vivo = test: in vivo; design: species or system mice; conditions: mouse, total radioactivity
Text: (§2) EXAMPLE. In vivo PET imaging and BioD study of DUPA-EAOA-Phe-Phe-NOTA-^68Ga radiotracer (^68Ga-QC08009). […] Without being bound by theory, it is believed herein that the data support that the primary elimination pathway is in urine.

[4] = test system: PSMA (+) LnCaP xenografts; test: in vivo; design: species or system mice; conditions: mouse
Text: as §2

PIP—PC3 cells = test: In vitro uptake by PIP—PC3 cells; type: cell-based
Method: as §1

LnCaP cells = test: In vitro uptake by LnCaP cells; type: cell-based
Method: as §1

KB tumor xenografts [5] = test: μPET imaging under baseline and competed conditions in nude mice bearing KB tumor xenografts; type: in vivo; conditions: competed group, 100 μg of folic acid 10 min before i.v. injection
Method: EXAMPLE. μPET imaging was performed on nude mice bearing KB tumor xenografts under baseline and competed conditions to evaluate the in vivo binding specificity of ^18F-AIF-QC07017 (2) to FR. Nude mice bearing KB tumor xenografts on their left shoulder were injected with 0.30-0.40 mCi (2). […] Without being bound by theory, it is believed herein that the high radioactivity found in kidneys was due to the uptake mediated by FR that is expressed in the proximal tubule cells in kidneys and the potential accumulation of radiotracer via renal excretion, which was further supported by the biodistribution studies described herein. With the exception of the liver, significant uptake in other organs was not observed.

FR [6] = biological target: T2, FR (Homo sapiens, UniProt P15328); test: Binding to FR in Cal51 xenograft tumor crude homogenate (concentration dependent binding, Scatchard analysis); conditions: Cal51 xenografts
T2 construct: to FR in KB and Cal51 tumor crude homogenate; from tissue; host or cells: KB and Cal51 tumour xenograft crude homogenates
Method: (§3) EXAMPLE. The specificity of the radionuclide containing conjugates binding to FR is evaluated against KB xenografts homogenates and Cal51 xenografts homogenates. […] Scatchard analyses were also performed. […] Without being bound by theory, it is believed herein that the moderate expression of FR in Cal51 xenografts accounts for the lower binding affinity. Binding affinities of ^18F-AIF-QC07017 (2) to FR in KB and Cal51 tumor crude homogenate.

FR [7] = biological target: T2, FR; test: Binding to FR in KB xenograft tumor crude homogenate (concentration dependent binding, Scatchard analysis); conditions: for non-specific binding: KB homogenates; for binding sites and affinity (Scatchard analyses): all cell xenografts
Method: as §3

[8] = KB xenografts, tumor crude homogenate

T2 sequence (P15328 25-234): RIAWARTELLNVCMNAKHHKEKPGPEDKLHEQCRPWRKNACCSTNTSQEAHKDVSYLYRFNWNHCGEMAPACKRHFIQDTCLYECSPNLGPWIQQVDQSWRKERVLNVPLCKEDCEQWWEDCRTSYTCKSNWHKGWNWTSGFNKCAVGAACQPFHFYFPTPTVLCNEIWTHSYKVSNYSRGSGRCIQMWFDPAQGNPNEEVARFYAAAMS
T1 sequence (Q04609 whole entry): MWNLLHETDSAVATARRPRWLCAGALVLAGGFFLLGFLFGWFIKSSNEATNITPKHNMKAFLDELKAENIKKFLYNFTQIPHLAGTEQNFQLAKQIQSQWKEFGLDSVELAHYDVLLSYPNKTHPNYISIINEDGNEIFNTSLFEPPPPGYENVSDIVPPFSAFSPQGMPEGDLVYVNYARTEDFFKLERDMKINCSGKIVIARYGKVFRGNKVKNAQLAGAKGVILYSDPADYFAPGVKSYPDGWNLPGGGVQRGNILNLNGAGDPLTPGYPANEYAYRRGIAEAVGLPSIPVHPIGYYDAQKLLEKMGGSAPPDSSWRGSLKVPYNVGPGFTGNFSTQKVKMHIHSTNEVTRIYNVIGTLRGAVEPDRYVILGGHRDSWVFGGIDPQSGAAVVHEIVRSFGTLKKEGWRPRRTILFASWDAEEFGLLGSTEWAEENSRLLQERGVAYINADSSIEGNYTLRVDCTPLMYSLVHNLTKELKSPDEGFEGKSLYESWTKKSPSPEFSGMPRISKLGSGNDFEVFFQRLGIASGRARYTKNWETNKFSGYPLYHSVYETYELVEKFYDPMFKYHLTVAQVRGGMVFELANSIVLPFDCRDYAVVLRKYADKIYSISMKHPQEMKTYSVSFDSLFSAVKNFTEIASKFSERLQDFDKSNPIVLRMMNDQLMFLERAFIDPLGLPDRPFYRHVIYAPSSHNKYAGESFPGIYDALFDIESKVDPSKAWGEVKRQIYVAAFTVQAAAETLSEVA

binding affinity (in words) (FR [6])	Bmax (FR [6]; tumor crude homogenate)	binding affinity (in words) (FR [7]; KB xenografts)	Bmax (FR [7]; [8])	binding sites and affinity (Scatchard analyses) (FR [7])	Compound	accumulation in A549 xenograft tumor tissues (A549 tumor xenografts)	FR specificity (KB tumor xenografts [1])	radiotracer level in kidneys (KB tumor xenografts [1])	binding affinity (in words) (FR [2])	non-specific binding (FR [7])	further results
					Nc1nc2ncc(CNc3ccc(C(=O)N[C@@H](CCC(=O)NCCOCCOCCOCCOCCOCCOCCOCCOCCOCCOCCOCCOCCC(=O)NCCNC(=O)CN4CCN(CC(=O)O)CCN(CC(=O)O)CC4)C(=O)O)cc3)nc2c(=O)[nH]1 (Al18F complex, metal not drawn) [^18F-AIF-QC07043]	comparable to the liver	comparable to etarfolatide (EC20)	highest signal	lowest binding affinity		
					O=C(O)CCC(NC(=O)NC(CCC(=O)NCCCCCCCC(=O)N[C@@H](Cc1ccccc1)C(=O)N[C@@H](Cc1ccccc1)C(=O)NCCNC(=O)CN1CCN(CC(=O)O)CCN(CC(=O)O)CC1)C(=O)O)C(=O)O (single isomer, unassigned) [^67Ga-NOTA-LC-PSMA2, DUPA-EAOA-Phe-Phe-NOTA-^67Ga, metal not drawn]						Kd (PSMA): 8.45 ± 2.16 nM; binding to PSMA(+) prostate cancer tissues [3]: superior binding
					O=C(O)CCC(NC(=O)NC(CCC(=O)NCCCCCCCC(=O)N[C@@H](Cc1ccccc1)C(=O)N[C@@H](Cc1ccccc1)C(=O)NCCNC(=O)CN1CCN(CC(=O)O)CCN(CC(=O)O)CC1)C(=O)O)C(=O)O (single isomer, unassigned) [^68Ga-QC08009, DUPA-EAOA-Phe-Phe-NOTA-^68Ga, metal not drawn]						uptake by cells (PC3 cells): minimal; uptake by cells when competed (PC3 cells; competing ligand): did not change when competed; tissue uptake dose (in vivo): 4.29 %ID; accumulation in kidneys [4]: minor accumulation; uptake by cells when competed (PIP—PC3 cells; PIP—PC3, competing ligand): blocked by competing ligand; uptake by cells (PIP—PC3 cells; PIP—PC3, transfect cell line with higher PSMA expression): substantial, with PIP—PC3 cells showing the highest uptake; uptake by cells (LnCaP cells; PSMA (+) cell line): substantial; uptake by cells when competed (LnCaP cells; competing ligand): blocked by competing ligand
Moderate binding affinity	36 nM	high specific binding affinity	511 nM	bound one site with high affinity	Nc1nc2ncc(CNc3ccc(C(=O)N[C@@H](CCC(=O)NCCOCCOCCNC(=O)CN4CCN(CC(=O)O)CCN(CC(=O)O)CC4)C(=O)O)cc3)nc2c(=O)[nH]1 [^18F-AIF-QC07017]	comparable to the liver	comparable to etarfolatide (EC20)	highest signal	lowest binding affinity	Significant non-specific binding was not observed	tumor uptake under competition with folic acid (KB tumor xenografts [5]): completely inhibited; Kd (FR [6]; tumor crude homogenate): 1.1 nM; Kd (FR [7]; [8]): 0.7 nM; binding by self competition (FR [7]; human tumor xenografts (KB and Cal51)): Displaceable and saturable binding
Moderate binding affinity	13 nM	high specific binding affinity	241 nM	bound one site with high affinity	Nc1nc2ncc(CNc3ccc(C(=O)N[C@@H](CCC(=O)NCCOCCOCCOCCOCCOCCOCCOCCOCCOCCOCCOCCOCCC(=O)NCCNC(=O)CN4CCN(CC(=O)O)CCN(CC(=O)O)CC4)C(=O)O)cc3)nc2c(=O)[nH]1 [^18F-AIF-QC07043]					Significant non-specific binding was not observed	
